From paper PMC5748833, “Synthesis and Biological Evaluation of Novel Hybrid Molecules Containing Purine, Coumarin and Isoxazoline or Isoxazole Moieties” (The Open Medicinal Chemistry Journal, 2017)
Where “and” joins values, the source holds several entries; their conditions need not be identical. Equal entries are not always repeated.

How the values were obtained:
[1] = Inhibition of linoleic acid lipid peroxidation (AAPH); details: 100 μM compound, 37°C
Method: 2.2.2.3 Inhibition of linoleic acid lipid peroxidation
Production of conjugated diene hydroperoxide by oxidation of linoleic acid sodium salt in an aqueous solution was monitored at 234 nm. 2,2’-Azobis(2-amidinopropane) dihydrochloride (AAPH) was used as a free radical initiator. 10 μl of the 16 mM linoleic acid sodium salt solution was added to the UV cuvette containing 0.93 ml of 0.05 M phosphate buffer, pH 7.4 prethermostated at 37°C. The oxidation reaction was initiated at 37°C under air by the addition of 50 μl of 40 mM AAPH solution. Oxidation was carried out in the presence of 10 μl of the examined compounds (stock solution in DMSO). In the assay without antioxidant, lipid oxidation was measured in the presence of the same level of DMSO. The rate of oxidation at 37°C was monitored by recording the increase in absorption at 234 nm caused by conjugated diene hydroperoxides (Table 5). Trolox was used as a standard.
Anti-lipid peroxidation activity. The water-soluble azo compound AAPH has been extensively used as a clean and controllable source of thermally produced alkyl peroxyl free radicals, through spontaneous thermal decomposition. […] In the AAPH assay, the highly reactive alkylperoxyl radicals are intercepted mainly by a hydrogen atom transfer (HAT) from the antioxidant.

soybean lipoxygenase = target: T1, soybean lipoxygenase (Glycine max, UniProt P08170); assay: Soybean lipoxygenase inhibition in vitro; type: biochemical; details: for inhibition at 100 µM: read-out: %LOX @ 100μΜ; for %LOX @ 100μΜ: 100 μM compound; for IC50: read-out: LOX IC50 μΜ
T1 construct: purchased Sigma Chemical, Co. (St. Louis, MO, USA)
T1 sequence (P08170 1-839): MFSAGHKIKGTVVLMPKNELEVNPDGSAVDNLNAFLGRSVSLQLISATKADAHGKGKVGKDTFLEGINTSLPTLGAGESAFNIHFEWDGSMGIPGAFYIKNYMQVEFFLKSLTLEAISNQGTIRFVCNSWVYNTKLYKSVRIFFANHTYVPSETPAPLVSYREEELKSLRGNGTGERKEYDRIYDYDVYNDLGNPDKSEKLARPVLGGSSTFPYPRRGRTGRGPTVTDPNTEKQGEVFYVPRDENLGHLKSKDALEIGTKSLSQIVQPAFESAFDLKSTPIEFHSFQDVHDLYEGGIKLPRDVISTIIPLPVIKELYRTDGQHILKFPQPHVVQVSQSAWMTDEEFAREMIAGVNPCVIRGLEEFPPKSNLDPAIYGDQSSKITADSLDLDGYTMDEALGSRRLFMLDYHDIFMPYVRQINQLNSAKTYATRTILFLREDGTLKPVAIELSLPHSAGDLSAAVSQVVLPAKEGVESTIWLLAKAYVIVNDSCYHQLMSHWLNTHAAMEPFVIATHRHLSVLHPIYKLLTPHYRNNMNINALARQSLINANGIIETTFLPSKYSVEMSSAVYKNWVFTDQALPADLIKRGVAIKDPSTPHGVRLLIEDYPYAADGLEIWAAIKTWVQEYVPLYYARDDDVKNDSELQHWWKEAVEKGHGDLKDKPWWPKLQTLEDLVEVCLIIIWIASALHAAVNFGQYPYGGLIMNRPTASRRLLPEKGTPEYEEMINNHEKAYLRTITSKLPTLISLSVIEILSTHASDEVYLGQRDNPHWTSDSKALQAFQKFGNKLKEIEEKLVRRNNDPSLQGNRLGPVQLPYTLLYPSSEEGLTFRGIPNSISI
Method: 2.2.2.4 Soybean lipoxygenase inhibition study in vitro [14]
In vitro study was evaluated as reported previously. The tested compounds dissolved in ethanol were incubated at room temperature with sodium linoleate (0.1 mM) and 0.2 ml of enzyme solution (1/9 x10^-4 w/v in saline). […] Several concentrations were used for the determination of IC50 values (Table 5).
LO is the key enzyme in leukotriene biosynthesis. Leukotrienes derived from the biotransformation of arachidonic acid catalyzed by 5-lipoxygenase (5-LO), are important inflammatory mediators implicated in several diseases. LOs play a role in membrane lipid peroxidation by forming hydroperoxides in the lipid bilayer. […] Most of the LO inhibitors are antioxidants or free radical scavengers, since lipoxygenation occurs via a carbon-centered radical. The evaluation of the novel coumarin hybrids against soybean lipoxygenase LO was accomplished by the UV-based enzyme assay.

[2] = Reducing activity of the stable radical DPPH; details: 100 μM compound, after 20 min
Method: 2.2.2.1 Determination of the reducing activity of the stable radical 1, 1-diphenyl-picrylhydrazyl (DPPH)
To a solution of DPPH (100μM) in absolute ethanol an equal volume of the compounds dissolved in ethanol was added. As control solution ethanol was used. The concentration of the solutions of the compounds was 100μM. After 20 and 60 min at room temperature the absorbance was recorded at 517 nm (Table 5). NDGA was used as a standard.
The compounds were studied for their antioxidant activity by the use of the stable 2,2-diphenyl-1-picrylhydrazyl radical (DPPH) at concentration 0.1mM after 20 min. […] This purple colour generally disappears in the presence of an antioxidant. The reduction of absorbance is a measure of the free DPPH due to the action of the antioxidant. The antioxidant activity was expressed as the RA% (Reducing Activity). […] Within the group of derivatives 4 the presence of the morpholinyl or piperidinyl rings at position A as well as the carbonyl group at position B, hinder the interaction of the compounds to the free stable radical DPPH.

[3] = Competition of the tested compounds with DMSO for hydroxyl radicals; details: 100 μM compound, Fe3+/ascorbic acid, 30 min, 37°C
Method: 2.2.2.2 Competition of the tested compounds with DMSO for hydroxyl radicals
The hydroxyl radicals generated by the Fe ^3+ /ascorbic acid system, were detected according to Nash, by the determination of formaldehyde produced from the oxidation of DMSO. The reaction mixture contained EDTA (0.1 mM), Fe ^3+ (167 μM), DMSO (33 mM) in phosphate buffer (50 mM, pH 7.4), the tested compounds (concentration 0.1mM) and ascorbic acid (10 mM). After 30 min of incubation (37°C) the reaction was stopped with CCl3COOH (17% w/v) (Table 5). Trolox was used as a standard.
Superoxide (O2^-.) anion and hydroxyl radical (^.OH) are free radical species of potential importance. In the acidic conditions of ischemic brain, O2^-. is probably protonated to give HO2^-. species. Iron released from damaged brain cells is more likely to be readily available to catalyze the generation of OH radicals. Among the ROS, the hydroxyl (^•OH) free radical is possibly the most toxic, as it reacts with a number of biological important molecules. Polyunsaturated fatty acids are found in high concentrations in the CNS, and are particularly vulnerable by free radicals. Thus, we tried to test the ability of our compounds to scavenge hydroxyl radicals. […] All the derivatives of series 13 (except of 13i) present high antioxidant activity (80-100%) which is not able to be correlated with any specific structural characteristic since all contain a coumarin, a purine and an isoxazolyl moiery. […] It seems that the overall molar configuration influences the response. However, antioxidants with hydrophilic or lipophilic character are both needed to act as radical scavengers in the aqueous phase or as chain-breaking antioxidants in biological membranes.

Structure (SMILES) | melting point | LP % @ 100μΜ (inhibition of lipid peroxidation) [1] | inhibition at 100 µM (soybean lipoxygenase) | RA% @ 100μΜ (reducing activity, DPPH) [2] | ∙ΟΗ % @ 100μΜ (hydroxyl radical scavenging, percent inhibition of formaldehyde production) ([3]; 100 µM) | %LOX @ 100μΜ (soybean lipoxygenase) | IC50 (soybean lipoxygenase) | ∙ΟΗ % @ 100μΜ (hydroxyl radical scavenging, percent inhibition of formaldehyde production) [3]
Cc1cc(=O)oc2cc(OCc3cc(Cn4cnc5c(N6CCCCC6)ncnc54)no3)ccc12 | 165 to 167 °C |  |  |  |  |  |  | 
O=c1ccc2ccc(OCC3=NOC(n4cnc5c(N6CCCC6)ncnc54)C3)cc2o1 (stereo not shown) | 200 to 202 °C |  |  |  |  |  |  | 
Cc1cc(=O)oc2ccc(OC(=O)C3CC(Cn4cnc5c(N6CCCC6)ncnc54)=NO3)cc12 (stereo not shown) | 192 to 193 °C |  |  |  |  |  |  | 
Cc1cc(=O)oc2ccc(OCC3CC(Cn4cnc5c(N6CCCCC6)ncnc54)=NO3)cc12 (stereo not shown) [4a, 4-methyl-6-({3-[(6-piperidin-1-yl-9H-purin-9-yl)methyl]-4,5-dihydroisoxazol-5-yl}methoxy)-2H-chromen-2-one] | 180 to 182 °C | 63% | 6% |  |  |  |  | 
Cc1cc(=O)oc2cc(OCC3CC(Cn4cnc5c(N6CCCCC6)ncnc54)=NO3)ccc12 (stereo not shown) [4c] | 186 to 187 °C | 65% |  | 17% | did not present any activity and no | no |  | 
Cc1cc(=O)oc2cc(OCC3CC(Cn4cnc5c(N6CCOCC6)ncnc54)=NO3)ccc12 (stereo not shown) [4d] | 194 to 196 °C | 21% | 44.5% |  |  |  |  | 
Cc1cc(=O)oc2cc(OCC3CC(Cn4cnc5c(N6CCCC6)ncnc54)=NO3)ccc12 (stereo not shown) [4e] | 190 to 192 °C | 65% |  |  |  | no |  | 
O=c1cc(OCC2CC(Cn3cnc4c(N5CCOCC5)ncnc43)=NO2)c2ccccc2o1 (stereo not shown) [4g] | 158 to 160 °C | 16% | 10% |  |  | 10% |  | 
Cc1cc(=O)oc2cc(OCCC3CC(Cn4cnc5c(N6CCCC6)ncnc54)=NO3)ccc12 (stereo not shown) [4j] | 178 to 180 °C | 32% | 37% | 44% | did not present any activity and no |  |  | 
Cc1cc(=O)oc2ccc(OC(=O)C3CC(Cn4cnc5c(N6CCCCC6)ncnc54)=NO3)cc12 (stereo not shown) [4k, 4-Methyl-2-oxo-2H-chromen-6-yl 3-[(6-piperidin-1-yl-9H-purin-9-yl)methyl]-4,5-Dihydroisoxazole-5-Carboxylate] | 179 to 181 °C | 57% |  | 12% |  |  | 10 µM | 
Cc1cc(=O)oc2ccc(OC(=O)C3CC(Cn4cnc5c(N6CCOCC6)ncnc54)=NO3)cc12 (stereo not shown) [4l] | 188 to 189 °C | 37.5% |  | 12% |  |  | 61 µM | 
Cc1cc(=O)oc2ccc(OCC3=NOC(Cn4cnc5c(N6CCCCC6)ncnc54)C3)cc12 (stereo not shown) [11a, 4-methyl-6-({5-[(6-piperidin-1-yl-9H-purin-9-yl)methyl]-4,5-dihydroisoxazol-3-yl}methoxy)-2H-chromen-2-one] | 148 to 150 °C | 44% |  |  |  | no |  | 
O=c1ccc2ccc(OCC3=NOC(Cn4cnc5c(N6CCCCC6)ncnc54)C3)cc2o1 (stereo not shown) [11g] | 184 to 185 °C | no |  |  |  | no |  | 
Cc1cc(=O)oc2cc(OCc3cc(Cn4cnc5c(N6CCOCC6)ncnc54)no3)ccc12 [13d] | 179 to 180 °C | no |  | no |  | no |  | 
O=c1ccc2ccc(OCc3cc(Cn4cnc5c(N6CCOCC6)ncnc54)no3)cc2o1 [13f] | 174 to 175 °C | 23% | 25% | no |  |  |  | 
O=c1ccc2ccc(OCc3cc(Cn4cnc5c(N6CCCC6)ncnc54)no3)cc2o1 [13g] | 176 to 178 °C | 43% |  | no |  |  | 62.5 µM and 62 µM | 
O=c1cc(OCc2cc(Cn3cnc4c(N5CCCCC5)ncnc43)no2)c2ccccc2o1 [13h] | 161 to 163 °C | 86% |  | no |  |  | 55 µM | 
O=c1ccc2ccc(OCc3cc(Cn4cnc5c(N6CCCCC6)ncnc54)on3)cc2o1 [15a, 7-({5-[(6-piperidin-1-yl-9H-purin-9-yl)methyl]isoxazol-3-yl}methoxy)-2H-chromen-2-one] | 140 to 142 °C |  |  | no |  |  | 55 µM | 
O=c1ccc2ccc(OCc3cc(Cn4cnc5c(N6CCCC6)ncnc54)on3)cc2o1 [15c] | 172 to 173 °C | 43% | 9% | no |  | 9% |  | 
CC(Cc1ccc(O)c(O)c1)C(C)Cc1ccc(O)c(O)c1 (stereo not shown) [NDGA, nordihydroguairetic acid, reference compound] |  |  |  | 87% |  |  |  | 
Cc1c(C)c2c(c(C)c1O)CCC(C)(C(=O)O)O2 (stereo not shown) [Trolox, reference compound] |  | 76% |  |  |  |  |  | 83%
